Data: ChEMBL document CHEMBL1139370, “Discovery of 1-[9-(4-chlorophenyl)-8-(2-chlorophenyl)-9H-purin-6-yl]-4-ethylaminopiperidine-4-carboxylic acid amide hydrochloride (CP-945,598), a novel, potent, and selective cannabinoid type 1 receptor antagonist” (J Med Chem, 2009)
Activity calls are given as the source filed them. The calls are words filed in the database; no cut-off is given here.

Experiments:
[1] = Lipophilicity, log D of the compound; format: physicochemical; details: octanol/water
[2] = target: Cannabinoid receptor 1 (Rattus norvegicus, UniProt P20272); test: Displacement of [3H]SR141716A from CB1 receptor in rat brain; format: tissue-based
[3] = Metabolic stability in rat liver microsomes assessed as intrinsic clearance; format: ADME, Microsome
[4] = Metabolic stability in human liver microsomes assessed as intrinsic clearance; format: ADME, Microsome
[5] = target: Voltage-gated inwardly rectifying potassium channel KCNH2 (Homo sapiens, UniProt Q12809); test: Inhibition of human ERG
[6] = tested on: Mus musculus; test: Reversal of CP-55940-induced locomotor activity in ICR mouse at 10 mg/kg, sc pretreated 15 mins before CP-55940 challenge measured 25 mins post challenge; format: functional, organism-based; set-up: dose 10 mg/kg
[7] = tested on: Mus musculus; test: Reversal of CP-55940-induced catalepsy in ICR mouse at 10 mg/kg, sc pretreated 15 mins before CP-55940 challenge measured 90 mins post challenge; format: functional, organism-based; set-up: dose 10 mg/kg
[8] = tested on: Mus musculus; test: Reversal of CP-55940-induced analgesia in ICR mouse at 10 mg/kg, sc pretreated 15 mins before CP-55940 challenge measured 45 mins post challenge by hot plate method; format: functional; details: route subcutaneous
[9] = tested on: Mus musculus; test: Reversal of CP-55940-induced hypothermia in ICR mouse at 10 mg/kg, sc pretreated 15 mins before CP-55940 challenge measured 65 mins post challenge; format: functional; details: route subcutaneous
[10] = Inhibition of P-gp assessed as ATP turnover at […] by cell-based ATPase assay
[11] = Inhibition of P-gp by cell-based calcein-acetoxymethyl ester assay
[12] = Induction of P-gp-mediated efflux in mdr1a/1b knockout mouse model
[13] = tested on: Rattus norvegicus; test: Anorectic activity in Sprague-Dawley rat assessed as reduction in food intake at 10 mg/kg, po measured at 10 mins interval for 2 hrs by fast-induced refeeding assay relative to control; format: functional; set-up: scale not given: the % may be the effect or the level left
[14] = Thermodynamic solubility in 0.1 M phosphate buffered saline at pH 6.5 by reversed phase HPLC; format: physicochemical; details: buffer
[15] = Thermodynamic solubility in USP simulated gastric fluid at pH 1.2 by reversed phase HPLC; format: physicochemical; details: simulated gi fluid
[16] = target: T1, Cannabinoid receptor 1 (Homo sapiens, UniProt P21554); test: biochemical; format: cell-based, HEK293
[17] = target: T1, Cannabinoid receptor 1; test: Antagonist activity against human CB1 receptor expressed in CHO-K1 cells by [35S]GTPgamma binding assay; format: functional, cell-based

Cannabinoid receptor 1 (Rattus norvegicus, UniProt P20272), sequence (P20272 whole entry): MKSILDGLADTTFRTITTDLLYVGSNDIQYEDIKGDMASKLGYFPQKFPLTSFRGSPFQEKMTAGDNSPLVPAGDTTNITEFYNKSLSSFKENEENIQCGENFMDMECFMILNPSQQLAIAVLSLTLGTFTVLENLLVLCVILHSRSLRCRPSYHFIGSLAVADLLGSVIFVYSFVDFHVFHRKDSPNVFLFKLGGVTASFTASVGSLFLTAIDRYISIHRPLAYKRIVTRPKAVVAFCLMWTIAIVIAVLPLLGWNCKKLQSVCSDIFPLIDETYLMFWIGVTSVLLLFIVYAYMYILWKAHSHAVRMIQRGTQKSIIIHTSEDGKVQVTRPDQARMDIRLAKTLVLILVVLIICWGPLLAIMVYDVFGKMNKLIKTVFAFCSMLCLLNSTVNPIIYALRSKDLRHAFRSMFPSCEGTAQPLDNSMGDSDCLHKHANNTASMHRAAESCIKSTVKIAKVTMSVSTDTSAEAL
Voltage-gated inwardly rectifying potassium channel KCNH2, sequence (Q12809 whole entry): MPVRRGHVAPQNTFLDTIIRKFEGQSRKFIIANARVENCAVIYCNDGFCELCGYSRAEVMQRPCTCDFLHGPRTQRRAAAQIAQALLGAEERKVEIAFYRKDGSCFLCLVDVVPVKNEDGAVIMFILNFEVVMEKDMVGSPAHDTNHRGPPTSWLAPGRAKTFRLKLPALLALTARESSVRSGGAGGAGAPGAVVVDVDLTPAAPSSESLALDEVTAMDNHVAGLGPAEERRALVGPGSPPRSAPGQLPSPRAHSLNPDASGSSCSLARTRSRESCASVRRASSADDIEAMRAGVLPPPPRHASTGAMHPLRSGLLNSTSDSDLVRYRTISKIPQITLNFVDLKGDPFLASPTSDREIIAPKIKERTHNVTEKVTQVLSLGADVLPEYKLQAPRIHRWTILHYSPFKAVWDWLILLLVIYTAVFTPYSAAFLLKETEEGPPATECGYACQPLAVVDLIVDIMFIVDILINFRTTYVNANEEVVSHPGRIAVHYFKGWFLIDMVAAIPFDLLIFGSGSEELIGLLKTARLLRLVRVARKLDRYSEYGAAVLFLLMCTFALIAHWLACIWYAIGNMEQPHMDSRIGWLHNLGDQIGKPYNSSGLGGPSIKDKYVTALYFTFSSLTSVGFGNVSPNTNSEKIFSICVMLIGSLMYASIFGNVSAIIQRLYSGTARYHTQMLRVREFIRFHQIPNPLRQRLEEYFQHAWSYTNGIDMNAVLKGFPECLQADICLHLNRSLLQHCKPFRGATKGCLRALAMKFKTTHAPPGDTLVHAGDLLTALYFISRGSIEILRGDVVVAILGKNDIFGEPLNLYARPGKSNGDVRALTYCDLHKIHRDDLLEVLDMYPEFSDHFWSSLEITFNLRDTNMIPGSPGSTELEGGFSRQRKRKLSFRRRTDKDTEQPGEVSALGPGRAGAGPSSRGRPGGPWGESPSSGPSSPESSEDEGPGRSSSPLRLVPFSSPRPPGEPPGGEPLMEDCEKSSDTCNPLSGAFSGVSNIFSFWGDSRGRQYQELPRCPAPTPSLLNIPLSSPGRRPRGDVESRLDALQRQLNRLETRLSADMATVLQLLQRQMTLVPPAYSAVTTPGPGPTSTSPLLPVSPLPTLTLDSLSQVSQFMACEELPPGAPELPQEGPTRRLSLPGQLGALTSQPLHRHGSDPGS
T1 sequence (P21554 whole entry): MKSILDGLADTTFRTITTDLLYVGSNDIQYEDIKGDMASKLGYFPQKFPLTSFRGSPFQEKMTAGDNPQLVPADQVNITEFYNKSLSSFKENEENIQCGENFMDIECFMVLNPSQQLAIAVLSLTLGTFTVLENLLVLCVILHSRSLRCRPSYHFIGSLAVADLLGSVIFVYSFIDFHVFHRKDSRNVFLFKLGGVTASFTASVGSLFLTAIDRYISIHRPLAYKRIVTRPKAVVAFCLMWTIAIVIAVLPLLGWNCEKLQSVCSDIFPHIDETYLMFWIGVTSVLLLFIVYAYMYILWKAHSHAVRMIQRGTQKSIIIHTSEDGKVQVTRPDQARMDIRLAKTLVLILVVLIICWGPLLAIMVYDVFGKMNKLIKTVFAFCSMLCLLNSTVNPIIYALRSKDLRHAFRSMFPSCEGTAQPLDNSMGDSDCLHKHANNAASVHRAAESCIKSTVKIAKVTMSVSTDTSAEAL

| SMILES | logD [1] | Ki [2] [nM] | CLint scaled [3] [L/h/kg] | CLint scaled [4] [L/h/kg] | Thermodynamic solubility [14] | Thermodynamic solubility [15] [ugA/ml] | Ki [16] [nM] | Ki [17] [nM] | IC50 [5] [nM] | Activity [6] | Activity [7] | Activity [8] [%] | Activity [9] [%] | Activity [10] | IC50 [11] [nM] | Activity [12] | Activity [13] [%] |
| --- | --- | --- | --- | --- | --- | --- | --- | --- | --- | --- | --- | --- | --- | --- | --- | --- | --- |
| CCNC1(C(N)=O)CCN(c2ncnc3c2nc(-c2ccccc2Cl)n3-c2ccc(Cl)cc2)CC1 [OTENABANT] | 4 | 2.8 | 72 | 44.4 | 1.3 ugA/ml | 291 |  |  | > 3000 | Active | Active | 85 | 73 | inactive | 15000 | Active | 54 |
| CN1CCN(c2ncnc3c2nc(-c2ccc(Cl)cc2Cl)n3-c2ccc(Cl)cc2)CC1 | 4.8 | 5.9 | 354 | 44.4 | 0.7 ugA/ml | 4930 | 5.2 | 1.5 | 350 |  |  | 74 | 4 |  |  |  | 25 |
| Clc1ccc(-n2c(-c3ccc(Cl)cc3Cl)nc3c(N4CCCCC4)ncnc32)cc1 | 5.9 | 4.2 | 4620 | 1680 | < 0.1 ugA/ml | 3.5 | 6.1 | 1.7 | > 3000 |  |  | 72 | 29 |  |  |  | 6 |
| Clc1ccc(-n2c(-c3ccccc3Cl)nc3c(N4CCCCC4)ncnc32)cc1 | 5.4 | 2.1 | 516 | 186 | < 0.1 µgA/ml | 8.8 | 2.3 | 1.1 |  |  |  |  |  |  |  |  |  |
| Clc1ccc(-n2c(-c3ccc(Cl)cc3Cl)nc3c(NC4CCCCC4)ncnc32)cc1 | 6.3 | 12 | 1440 | 1680 | < 0.1 ugA/ml | 4.1 | 7.1 | 1.5 |  |  |  |  |  |  |  |  |  |

Now from value to compound, other results behind:

| logD [1] | Ki [2] [nM] | CLint scaled [3] [L/h/kg] | CLint scaled [4] [L/h/kg] | Thermodynamic solubility [14] | Thermodynamic solubility [15] [ugA/ml] | Ki [16] [nM] | Ki [17] [nM] | SMILES | IC50 [5] [nM] | Activity [6] | Activity [7] | Activity [8] [%] | Activity [9] [%] | Activity [10] | IC50 [11] [nM] | Activity [12] | Activity [13] [%] |
| --- | --- | --- | --- | --- | --- | --- | --- | --- | --- | --- | --- | --- | --- | --- | --- | --- | --- |
|  |  | 540 |  |  |  |  |  | Cc1c(C(=O)NN2CCCCC2)nn(-c2ccc(Cl)cc2Cl)c1-c1ccc(Cl)cc1 [RIMONABANT] |  |  |  |  |  |  |  |  |  |
| 5.3 | 3.6 | 246 | 102 | 1.4 ugA/ml | 161 | 7.4 | 1.7 | Clc1ccc(-n2c(-c3ccc(Cl)cc3Cl)nc3c(NN4CCCCC4)ncnc32)cc1 | 2700 |  |  |  |  |  |  |  |  |
| 4.1 | 24 | 90 | 18 | 0.33 ugA/ml | 1290 |  |  | CN1CCN(c2ncnc3c2nc(-c2ccccc2Cl)n3-c2ccc(Cl)cc2)CC1 | 630 |  |  |  |  |  |  |  |  |
